Reference: patent US8710178B2, “Macrocyclic cysteine protease inhibitors and compositions thereof” (Lincoln University, priority 2006, dated 2014)
Where two headings read alike, the source gives them in different places.

Columns and labels:
calpain II (m calpain) = molecular target: T1, calpain II (m calpain) (Homo sapiens, UniProt P17655); assay: BODIPY-casein fluorescence-based enzyme assay, calpain II / m-calpain; type: biochemical; settings: BODIPY-casein substrate
T1 sequence (P17655 1-700): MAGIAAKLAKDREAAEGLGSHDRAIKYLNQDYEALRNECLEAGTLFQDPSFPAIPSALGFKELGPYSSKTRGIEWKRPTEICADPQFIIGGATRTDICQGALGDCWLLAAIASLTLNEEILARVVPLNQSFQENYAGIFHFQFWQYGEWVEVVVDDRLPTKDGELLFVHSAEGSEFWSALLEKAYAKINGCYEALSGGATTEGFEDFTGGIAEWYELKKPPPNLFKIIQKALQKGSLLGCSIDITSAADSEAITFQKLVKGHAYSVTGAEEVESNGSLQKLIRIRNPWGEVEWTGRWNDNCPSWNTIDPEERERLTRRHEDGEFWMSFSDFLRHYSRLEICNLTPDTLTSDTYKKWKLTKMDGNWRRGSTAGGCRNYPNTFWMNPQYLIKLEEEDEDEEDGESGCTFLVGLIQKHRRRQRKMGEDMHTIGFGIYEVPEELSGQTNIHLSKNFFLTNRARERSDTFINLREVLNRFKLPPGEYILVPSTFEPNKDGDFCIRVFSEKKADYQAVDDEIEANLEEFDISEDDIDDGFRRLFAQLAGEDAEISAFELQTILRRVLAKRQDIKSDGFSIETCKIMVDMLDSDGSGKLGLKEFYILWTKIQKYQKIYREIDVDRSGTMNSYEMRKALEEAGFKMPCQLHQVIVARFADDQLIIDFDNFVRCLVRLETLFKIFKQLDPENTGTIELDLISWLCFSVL
T1 sequence (P04632 1-268 partner): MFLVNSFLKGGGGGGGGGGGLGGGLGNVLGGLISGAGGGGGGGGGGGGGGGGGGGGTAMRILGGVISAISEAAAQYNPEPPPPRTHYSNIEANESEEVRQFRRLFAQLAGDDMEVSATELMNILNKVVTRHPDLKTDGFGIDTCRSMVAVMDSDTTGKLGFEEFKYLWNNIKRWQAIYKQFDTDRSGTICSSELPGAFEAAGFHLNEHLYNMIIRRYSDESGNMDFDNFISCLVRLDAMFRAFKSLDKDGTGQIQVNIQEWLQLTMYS
Procedure: (§1) The inhibitors were assayed against several enzymes using a BODIPY-casein substrate in the fluorescence-based assay procedure of V. F. Thompson, S. Saldana, J. Cong and D. E. Goll, Anal. Biochem. 2000, 279, 170.
A number of the compounds were assayed against m-calpain using a BODIPY-casein substrate in the fluorescence-based assay procedure of V. F. Thompson, S. Saldana, J. Cong and D. E. Goll, Anal. Biochem. 2000, 279, 170.

cathepsin B = cathepsin B (Homo sapiens, UniProt P07858); assay: BODIPY-casein fluorescence-based enzyme assay, cathepsin B; type: biochemical; settings: BODIPY-casein substrate
α-chymotrypsin = α-chymotrypsin (Bos taurus, UniProt P00766); assay: BODIPY-casein fluorescence-based enzyme assay, α-chymotrypsin; type: biochemical; settings: BODIPY-casein substrate
papain = molecular target: T2, papain (Carica papaya, UniProt P00784); assay: BODIPY-casein fluorescence-based enzyme assay, papain; type: biochemical; settings: BODIPY-casein substrate
T2 sequence (P00784 134-345): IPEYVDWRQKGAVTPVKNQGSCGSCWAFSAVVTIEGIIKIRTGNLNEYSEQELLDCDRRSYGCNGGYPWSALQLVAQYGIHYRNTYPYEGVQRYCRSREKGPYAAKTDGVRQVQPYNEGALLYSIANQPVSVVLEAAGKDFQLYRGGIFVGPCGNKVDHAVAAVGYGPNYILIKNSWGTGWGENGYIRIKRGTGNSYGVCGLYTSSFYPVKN
Procedure: as §1

[1] = system: lambs genetically predisposed to cataracts; assay: Cataract progression in lambs genetically predisposed to cataracts; settings: for cataract progression in both eyes versus placebo-treated lambs: 1% ointment (25 mg) twice daily for three months, p=0.066 (compound 9), p=0.26 (compound 8); for cataract progression, treated right eye versus left eye: 1% ointment (25 mg) twice daily to right eye for three months, slit-lamp microscope
Procedure: A flock of 63 lambs genetically predisposed to cataracts were split into three equal groups. […] A placebo ointment (25 mg) was applied twice daily to the right eye of the final group of 21 lambs for three months starting when they were three to four months old.
The progression of cataracts was determined by a veterinary ophthalmologist with a slit-lamp microscope.

calpain I (μ calpain) = molecular target: T3, calpain I (μ calpain) (Homo sapiens, UniProt P07384); assay: BODIPY-casein fluorescence-based enzyme assay, calpain I; type: biochemical; settings: BODIPY-casein substrate
T3 sequence (P07384 1-714): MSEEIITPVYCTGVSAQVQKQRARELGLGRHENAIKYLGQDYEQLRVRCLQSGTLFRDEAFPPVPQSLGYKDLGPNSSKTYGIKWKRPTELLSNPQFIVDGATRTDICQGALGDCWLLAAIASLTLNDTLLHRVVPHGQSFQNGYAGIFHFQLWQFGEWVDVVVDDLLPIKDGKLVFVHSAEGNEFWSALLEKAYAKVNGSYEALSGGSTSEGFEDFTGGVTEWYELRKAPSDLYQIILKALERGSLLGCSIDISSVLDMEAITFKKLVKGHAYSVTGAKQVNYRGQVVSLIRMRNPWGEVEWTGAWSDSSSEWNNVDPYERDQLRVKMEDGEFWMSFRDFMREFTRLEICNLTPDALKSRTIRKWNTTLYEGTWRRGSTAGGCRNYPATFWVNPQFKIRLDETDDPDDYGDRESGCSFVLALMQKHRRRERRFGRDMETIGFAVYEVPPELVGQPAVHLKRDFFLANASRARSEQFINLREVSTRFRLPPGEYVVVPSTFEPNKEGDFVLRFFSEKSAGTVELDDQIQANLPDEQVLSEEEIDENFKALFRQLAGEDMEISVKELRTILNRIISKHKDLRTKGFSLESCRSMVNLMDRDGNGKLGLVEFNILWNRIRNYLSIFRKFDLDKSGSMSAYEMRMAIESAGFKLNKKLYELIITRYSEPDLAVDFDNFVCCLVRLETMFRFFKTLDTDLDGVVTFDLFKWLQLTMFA
T3 sequence (P04632 1-268 partner): T1 sequence (P04632 1-268 partner)

eye of a lamb = assay: Eye irritation test of ointment in a lamb; type: in vivo; settings: ointment (50 mg) comprising 1% of compound, one eye of a lamb, three times in one day
[2] = Table 2, read-out: IC50 calpain II (m calpain)
[3] = Table 3, read-out: IC50 against m-calpain

Compound	IC50 (calpain II (m calpain); [2]) [nM]	IC50 (calpain II (m calpain); [3]) [nM]	IC50 (cathepsin B) [nM]	IC50 (α-chymotrypsin) [nM]	IC50 (papain) [nM]	cataract progression in both eyes versus placebo-treated lambs [1]	cataract progression, treated right eye versus left eye [1]	IC50 (calpain I (μ calpain)) [nM]	sign of irritation (eye of a lamb)	slowing of cortical cataract progression ([1]; over a 12 week period, flock of lambs genetically predisposed to cataracts) [%]	signs of toxicity ([1]; over a 12 week period, lambs)
CC(C)C[C@@H]1NC(=O)[C@@H](NC(=O)OCc2ccccc2)Cc2ccc(cc2)OCCCC[C@@H](CO)NC1=O [Compound 8]	700	700	290	> 50000	> 50000	significantly slower	did not show significantly slower cataract progression	1750	–	–	–
CC(C)C[C@@H]1NC(=O)[C@@H](NC(=O)OCc2ccccc2)Cc2ccc(cc2)OCCCC[C@@H](C=O)NC1=O [Compound 9]	30	30	70	> 50000	> 50000	significantly slower	did not show significantly slower cataract progression	223	No sign of irritation	30	no signs of toxicity
CC(C)C[C@@H]1NC(=O)[C@@H](NC(=O)OCc2ccccc2)Cc2ccc(cc2)OCCCC[C@@H](CN=[N+]=[N-])NC1=O [Compound 79, (7S-azidomethyl-10S-isobutyl-9,12-dixoxo-2-oxa-8,11-diazabicyclo-[13.2.2]nonadeca-1(18),15(19),16-trien-13S-yl)carbamic acid benzyl ester]	> 50000	> 50000	> 50000	> 50000	> 50000	–	–	> 50000	–	–	–
